Experimental data from patent US11851410B2, “Sensors for detection of negatively charged phosphate-containing membranes and membrane components” (THE GOVERNING COUNCIL OF THE UNIVERSITY OF TORONTO, priority 2017, dated 2023).

Columns and labels:
[1] = cited from earlier work
[2] = test system: TOCL (CL) negatively charged vesicles; experiment: Serial dilution vesicle fluorescence intensity experiments, CL vesicles; type: binding; parameters: ΔΔFI: unit not given here; conditions: for ΔΔFI: sensor 25 μM (PSVue™380 1 μM), 50 mM HEPES, 5% DMSO, pH 7.5
Source text: (§1) The following equations were used for the calculations: […]

[3] = test system: POPE (PE) zwitterionic vesicles; experiment: Serial dilution vesicle fluorescence intensity experiments, PE vesicles; type: binding; conditions: sensor 25 μM (PSVue™380 1 μM), 50 mM HEPES, 5% DMSO, pH 7.5
Source text: as §1

[4] = test system: POPA (PA) negatively charged vesicles; experiment: Serial dilution vesicle fluorescence intensity experiments, PA vesicles; type: binding; conditions: for ΔΔFI: PA vesicles, sensor 25 μM (PSVue™380 1 μM), 50 mM HEPES, 5% DMSO, pH 7.5
Source text: as §1

[5] = test system: POPG (PG) negatively charged vesicles; experiment: Serial dilution vesicle fluorescence intensity experiments, PG vesicles; type: binding; conditions: sensor 25 μM (PSVue™380 1 μM), 50 mM HEPES, 5% DMSO, pH 7.5
Source text: as §1

[6] = test system: DOPS (PS) negatively charged vesicles; experiment: Serial dilution vesicle fluorescence intensity experiments, PS vesicles; type: binding; parameters: ΔΔFI: unit not given here; conditions: for ΔΔFI: sensor 25 μM (PSVue™380 1 μM), 50 mM HEPES, 5% DMSO, pH 7.5
Source text: as §1
It is estimated that a mammalian cell membrane is composed of 10% PS, with the majority located on the inner leaflet in the healthy state. However, during the early stages of apoptosis, this asymmetry is lost and PS becomes symmetrically distributed resulting in ˜5% of PS externalized to the outer leaflet. To address if compounds of this application could potentially be used for the detection of the PS externalization event during apoptosis, the exemplary sensors were screened against PC vesicles containing biologically-relevant levels of PS ([…]; assuming that approximately half of the lipid head groups will be exposed to the interior of the vesicle). The resulting ΔΔFI for vesicle concentrations up to 40 μM are presented in FIG. 7 and Table 1 (ΔΔFI for vesicle concentrations up to 200 μM is presented in FIG. 4).

[7] = test system: DOPS (PS) negatively charged vesicles; experiment: as above; type: binding; parameters: ΔΔFI: unit not given here; conditions: for ΔΔFI: sensor 25 μM (PSVue™380 1 μM), 50 mM HEPES, 5% DMSO, pH 7.5; remark: listed apart in the source
[8] = test system: Gram-positive bacteria (B. subtilis, B. megaterium, M. luteus, S. epidermidis); conditions: sensor 10 μM; λex/em 350/476 nm
Description: Bacteria samples were titrated from 10^8-10^10 cells/mL in a large-volume 12 well plate. Bacteria samples were added to black 384-well plates in triplicate.

[9] = test system: E. coli K-12 BW25113 cells in presence of MV4-11 cells; experiment: Fluorescence microscopy experiments with bacteria and mammalian cells; type: cell-based; conditions: 10^8 cells/mL E. coli; sensor 40 μM
Description: MV4-11 mammalian cells and bacteria samples were both added to a microscope chamber slide and left to incubate for 5 minutes. Visualization was performed first in bright field and then auto-fluorescence was recorded with UV excitation. Sensors were then added into the chamber at appropriate concentrations and fluorescence emission was captured.

[10] = test system: negatively charged vesicles (PA, PS, PG, CL); experiment: Vesicle fluorescence intensity experiments, all negatively charged vesicles; type: binding; conditions: sensor 25 μM; vesicles up to 200 μM; λex/em 350/476 nm
Description: (§2) Small Unilamellar Vesicles (SUVs) were prepared by the extrusion method. Appropriate amounts of lipid in the desired proportions were weighed out to create 10 mM liposome suspensions. The lipids were then dissolved in a minimum amount of chloroform and vortexed to ensure thorough mixing. The excess solvent was then dried off under a gentle stream of nitrogen and allowed to dry overnight in a vacuum dessicator to remove any remaining traces of solvent. The resulting lipid film was then hydrated with 2 mL of HEPES buffer (50 mM HEPES, pH 7.5) for 1 h. The sample was then subjected to five cycles of freeze-thaw-vortex, cycling between liquid nitrogen and a 60° C. water bath. The resulting suspension of multilamellar vesicles (MLVs) was then extruded 25 times through a 0.1 μm polycarbonate membrane installed in a mini-extruder (Avanti Polar Lipids, Alabaster, AL) to form SUV.
10 mM stock solutions of vesicles were diluted separately to 400 μM and 80 μM in pH 7.5, 50 mM HEPES buffer. […] The sensors were dissolved to a concentration of 50 μM (from 800 μM stock solutions in 100% DMSO) in 50 mM HEPES, pH 7.5, 10% DMSO buffer. […] Fluorescence intensities measured were used to calculate the following parameters: ΔFIexc, ΔΔFIexc, ΔFImon, ΔΔFImon, ΔΔFIexc/mon and ΔΔΔFI. The following equations were used for the calculations: […]
Of these, PC and PE represented the zwitterionic vesicles; PS (−1), PA (−1), PG (−1) and CL (−2) represented the negatively charged vesicles.
(§3) The fluorescence enhancement of the excimer (ΔFIexc) species in the presence of vesicles was calculated using equation 1, which is defined as the ratio of the emission intensities of the sensor-vesicle sample and the sensor alone.

[11] = test system: zwitterionic vesicles (PC, PE); experiment: Vesicle fluorescence intensity experiments, zwitterionic vesicles; type: binding; conditions: sensor 25 μM; vesicles up to 200 μM; λex/em 350/476 nm
Description: as §2
10 mM stock solutions of vesicles were diluted separately to 400 μM and 80 μM in pH 7.5, 50 mM HEPES buffer. […] Fluorescence intensities measured were used to calculate the following parameters: ΔFIexc, ΔΔFIexc, ΔFImon, ΔΔFImon, ΔΔFIexc/mon and ΔΔΔFI. […]
as §3

PA vesicles = experiment: Zinc metalation fluorescence experiments; type: binding; conditions: for FIexc response to increasing PA vesicle concentrations, unmetallated: acid-treated glassware, chelex-treated buffers, non-normalized FIexc; for ability to detect PA vesicles in the absence of Zn^2+ (ΔFI): unmetallated sensors, PA vesicles 0-200 μM
Description: Vesicle fluorescence intensity experiments were performed in the absence or presence of zinc(II) (trifluoromethanesulfonate salt). Unmetallated PSVue™380 (PSVue™380*) was also included for reference.
All glassware was treated with 0.1 M HCl overnight, rinsed three times with MilliQ water, and oven dried. […] The sensor-zinc solutions were then combined with PA vesicles, prepared as described above, incubated as described above and the fluorescence emission intensity was then measured as described above.
In an effort to eliminate this possibility, all glassware was acid-treated and all buffers were chelex-treated to remove any metals, and the screens were repeated with PA vesicles. For these experiments, original non-normalized FIexc values were analyzed.

[12] = test system: WT and mutant E. coli strains; experiment: Bacteria mutant strain knockout fluorimetry, E. coli; type: cell-based; conditions: for effect of LPS kinase knockouts on fluorescence fold: E. coli ΔWaaP, ΔwaaG; for effect of cardiolipin synthase knockouts on fluorescence fold: E. coli ΔclsA, ΔclsB, ΔclsC
Source text: Fluorescence intensities were used to calculate the excimer emission in response to bacterial strains. Measurements were averaged over two triplicates.

[13] = 33% CL vesicles, 20 μM vesicles
[14] = CL vesicles (50%), 5 μM vesicles
[15] = CL vesicles (50%), 20 μM vesicles
[16] = 25% PS vesicles, 20 μM vesicles
[17] = 75% PS vesicles, 20 μM vesicles
[18] = PS vesicles (50%), 5 μM vesicles
[19] = PS vesicles (50%), 20 μM vesicles

| Structure (SMILES) | ΔΔFI ([2]; 33% CL vesicles, 5 μM vesicles) | ΔΔFI [2, 13] | ΔΔFI [2, 14] | ΔΔFI [2, 15] | ΔΔFI ([3]; 5 μM vesicles) | ΔΔFI ([3]; 20 μM vesicles) | ΔΔFI ([4]; 5 μM vesicles) | ΔΔFI ([4]; 20 μM vesicles) | ΔΔFI ([5]; 5 μM vesicles) | ΔΔFI ([5]; 20 μM vesicles) | ΔΔFI ([6]; 5% PS vesicles, 5 μM vesicles) | ΔΔFI ([6]; 5% PS vesicles, 20 μM vesicles) | ΔΔFI ([6]; 25% PS vesicles, 5 μM vesicles) | ΔΔFI [6, 16] | ΔΔFI ([7]; 75% PS vesicles, 5 μM vesicles) | ΔΔFI [7, 17] | ΔΔFI [7, 18] | ΔΔFI [7, 19] | other results |
| --- | --- | --- | --- | --- | --- | --- | --- | --- | --- | --- | --- | --- | --- | --- | --- | --- | --- | --- | --- |
| c1ccc(CNCc2ccccn2)nc1 [DPA] |  |  |  |  |  |  |  |  |  |  |  |  |  |  |  |  |  |  | pKa [1]: 2.60; pKa (first given) [1]: 7.30; pKa (third printed) [1]: 1.12 |
| c1cc2ccc3ccc(CCCCN4CCNCCNCCNCC4)c4ccc(c1)c2c34 [I-2] | 3 | 7.2 | 4.4 | 12 | 1.1 | 1.6 | 4.3 | 12.3 | 2.5 | 5.5 | 1.6 | 3.1 | 1.8 | 4.3 | 4.2 | 11.7 | 2.8 | 7.6 |  |
| c1cc2ccc3ccc(CCCCN4CCCNCCNCCCNCC4)c4ccc(c1)c2c34 [I-4] | 3.9 | 9.2 | 5.9 | 16.3 | 1 | 1.3 | 7.3 | 21.7 | 3.4 | 7.7 | 2.2 | 3.9 | 2.9 | 5.6 | 7.1 | 16.7 | 4.5 | 10.3 | sensitivity compared to PSVue™380, 20 μM CL vesicles [2]: comparable; sensing PA compared to PSVue™380 ([4]; Table 1 comparison): superior; detection of PC vesicles containing 5 and 25% PS ([6]; 5 and 25% PS, corresponding to 2.5 and 12.5% of PS exposed to solution): efficiently detected; sensitivity compared to PSVue™380, 5 μM PS vesicles ([7]; 5 μM PS vesicles): comparable; detection of Gram-positive bacteria with a fluorometer in bulk solution [8]: can detect Gram-positive bacteria |
| c1ccc(CN(Cc2ccccn2)Cc2ccc3ccc4cccc5ccc2c3c45)nc1 [I-5] | 2.5 | 7.9 | 5 | 15.9 | 0.9 | 1 | 4.4 | 14.1 | 1.7 | 3.9 | 1.4 | 2.6 | 1.9 | 4 | 5.4 | 16.7 | 2.9 | 8.8 | sensitivity compared to PSVue™380, 20 μM CL vesicles [2]: comparable; detection of bacterial cells versus mammalian MV4-11 cells by microscopy [9]: bacterial cells are detected more readily than mammalian MV4-11 cells |
| c1ccc(CN(CCCCc2ccc3ccc4cccc5ccc2c3c45)Cc2ccccn2)nc1 [I-6] | 1.9 | 3.1 | 2.7 | 4.3 | 1 | 1 | 4.4 | 6.9 | 1.8 | 2.7 | 1.6 | 2.4 | 2.1 | 3 | 4.5 | 7.5 | 2.9 | 4.8 |  |
| O=C(CCCCc1ccc2ccc3cccc4ccc1c2c34)NCCNC(=O)c1ccc(CN(Cc2ccccn2)CC(O)CN(Cc2ccccn2)Cc2ccccn2)nc1 (stereo not shown) [I-12] |  |  |  |  |  |  |  |  |  |  |  |  |  |  |  |  |  |  | ΔFIexc for all negatively charged vesicles [10]: ≥ 20; ΔFIexc for negatively charged vesicles, highest value (up to) [10]: ~80; ΔFIexc for zwitterionic vesicles [11]: ≤ 2 |
| c1cc2ccc3ccc(CN4CCNCCNCCNCC4)c4ccc(c1)c2c34 [II-1, 1-(pyren-1-ylmethyl)-1,4,7,10-tetraazacyclododecane] |  |  |  |  |  |  |  |  |  |  |  |  |  |  |  |  |  |  | ΔFI of unmetallated sensor versus metallated counterpart (PA vesicles; PA vesicles): outperformed its metallated counterpart; FIexc response to increasing PA vesicle concentrations, unmetallated (PA vesicles): comparable responses; ability to detect PA vesicles in the absence of Zn^2+ (ΔFI) (PA vesicles): retained their ability to detect PA |
| c1cc2ccc3ccc(CN4CCCNCCNCCCNCC4)c4ccc(c1)c2c34 [II-3, 1-(pyren-1-ylmethyl)-1,4,8,11-tetraazacyclotetradecane] |  |  |  |  |  |  |  |  |  |  |  |  |  |  |  |  |  |  | effect of LPS kinase knockouts on fluorescence fold [12]: little to no change; effect of cardiolipin synthase knockouts on fluorescence fold [12]: greatest effect |
| c1ccc(CN(Cc2ccccn2)Cc2ccc3ccc4cccc5ccc2c3c45)nc1 [II-5, 1-(pyren-1-yl)-N, N-bis(pyridin-2-ylmethyl)methanamine] |  |  |  |  |  |  |  |  |  |  |  |  |  |  |  |  |  |  | effect of LPS kinase knockouts on fluorescence fold [12]: little to no change; effect of cardiolipin synthase knockouts on fluorescence fold [12]: greatest effect; FIexc response to increasing PA vesicle concentrations, unmetallated (PA vesicles): did not respond; ability to detect PA vesicles in the absence of Zn^2+ (ΔFI) (PA vesicles): lost their ability to sense PA |
